{"source": "patent US20040033524A1", "about": "“Beta-adrenoceptor genetic polymorphisms and obesity” (priority 2001, published 2004)", "tested_on": "individuals with hypertension", "assay": "Blood pressure and heart rate response to metoprolol by β1AR codon 389 / codon 49 genotype", "assay_type": "in vivo, human", "conditions": "for 24 hr SBP response (% change) / 24 hr DBP response (% change) / Daytime DBP response (% change) / Daytime SBP response (% change) / Nighttime DBP response (% change) / Nighttime SBP response (% change): at least 4 weeks", "procedure": "Genetic variation (polymorphisms) in the gene encoding the beta 1-adrenergic receptor (β1AR) contribute to the variability in response to beta-blockers. There are two common, non-synonymous polymorphisms of the P AR gene and they result in either a serine (Ser) or glycine (Gly) at codon 49, and arginine (Arg) or glycine (Gly) at codon 389. The relationship between these polymorphisms and heart rate and blood pressure response to the beta-blocker metoprolol was tested in 28 individuals with hypertension.\nPatients were washed out from all their antihypertensive medications for at least 2 weeks. They then underwent baseline testing which included recording of 24-hour ambulatory blood pressure data and treadmill exercise heart rate responses at 10 AM and 2 PM. Patients were started on metoprolol and titrated to a dose that produced a diastolic blood pressure DBP<90 mm Hg, or until they reached the maximum dose (200 mg twice daily). Patients were maintained on this target dose for at least 4 weeks and then underwent repeat studies, as at baseline.\nPatients were also divided as responders or non-responders, with non-responders defined as those with a <10% decline in DBP, and compared allele frequencies in these groups.", "key": {"[1]": {"conditions": "Arg389Arg genotype, metoprolol titrated"}, "[2]": {"conditions": "Ser49Ser genotype, metoprolol titrated"}, "[3]": {"conditions": "codon 49 Gly carriers, metoprolol titrated"}, "[4]": {"conditions": "codon 389 Gly carriers, metoprolol titrated"}}}
{"compound": "COCCc1ccc(OCC(O)CNC(C)C)cc1", "note": "(stereo not drawn) [metoprolol]", "values": [{"measurement": "24 hr SBP response (% change)", "setting": "Arg389Arg genotype, metoprolol titrated to DBP<90 mm Hg or max 200 mg twice daily, 24-hour ambulatory BP vs baseline", "result": "−10.5 ± 7.9", "unit": "% change"}, {"measurement": "24 hr DBP response (% change)", "setting": "[1]", "result": "−12.6 ± 7.4", "unit": "% change"}, {"measurement": "Daytime DBP response (% change)", "setting": "[1]", "result": "−13.6 ± 7.2", "unit": "% change"}, {"measurement": "Daytime SBP response (% change)", "setting": "[1]", "result": "−11.6 ± 8.0", "unit": "% change"}, {"measurement": "Nighttime DBP response (% change)", "setting": "[1]", "result": "−10.6 ± 11.6", "unit": "% change"}, {"measurement": "Nighttime SBP response (% change)", "setting": "[1]", "result": "−7.5 ± 9.5", "unit": "% change"}, {"measurement": "Daytime blood pressure response", "setting": "Arg389 homozygotes compared to carriers of Gly389, not nighttime", "result": "significantly greater"}, {"measurement": "24 hr DBP response (% change)", "setting": "[2]", "result": "−10.7 ± 7.8", "unit": "% change"}, {"measurement": "24 hr SBP response (% change)", "setting": "[2]", "result": "−10.1 ± 9.1", "unit": "% change"}, {"measurement": "Daytime DBP response (% change)", "setting": "[2]", "result": "−10.3 ± 8.2", "unit": "% change"}, {"measurement": "Daytime SBP response (% change)", "setting": "[2]", "result": "−10.2 ± 9.3", "unit": "% change"}, {"measurement": "Nighttime DBP response (% change)", "setting": "[2]", "result": "−12.4 ± 9.4", "unit": "% change"}, {"measurement": "Nighttime SBP response (% change)", "setting": "[2]", "result": "−9.3 ± 10.9", "unit": "% change"}, {"measurement": "change in nighttime blood pressure", "setting": "Ser49 homozygotes compared to carriers of the Gly49 allele", "result": "significantly greater"}, {"measurement": "24 hr DBP response (% change)", "setting": "[3]", "result": "−3.9 ± 8.9", "unit": "% change"}, {"measurement": "24 hr SBP response (% change)", "setting": "[3]", "result": "−0.6 ± 12.2", "unit": "% change"}, {"measurement": "Daytime DBP response (% change)", "setting": "[3]", "result": "−4.0 ± 10.4", "unit": "% change"}, {"measurement": "Daytime SBP response (% change)", "setting": "[3]", "result": "−1.0 ± 12.8", "unit": "% change"}, {"measurement": "Nighttime DBP response (% change)", "setting": "[3]", "result": "−3.1 ± 9.0", "unit": "% change"}, {"measurement": "Nighttime SBP response (% change)", "setting": "[3]", "result": "+0.6 ± 11.8 % change"}, {"measurement": "24 hr DBP response (% change)", "setting": "[4]", "result": "−4.6 ± 8.3", "unit": "% change"}, {"measurement": "Daytime DBP response (% change)", "setting": "[4]", "result": "−3.5 ± 8.7", "unit": "% change"}, {"measurement": "Daytime SBP response (% change)", "setting": "[4]", "result": "−2.8 ± 12.5", "unit": "% change"}, {"measurement": "Nighttime DBP response (% change)", "setting": "[4]", "result": "−7.3 ± 9.1", "unit": "% change"}, {"measurement": "Nighttime SBP response (% change)", "setting": "[4]", "result": "−3.9 ± 13.9", "unit": "% change"}, {"measurement": "24 hr SBP response (% change)", "setting": "codon 389 Gly carriers, metoprolol titrated, ambulatory BP vs baseline", "result": "−3.3 ± 12.6", "unit": "% change"}, {"measurement": "heart rate response to beta-blockade", "setting": "treadmill exercise heart rate, relation to β1AR genotype", "result": "not associated with genotype"}]}
